Measured values published in patent publication US6538008B1, “Combination of a selective NMDA NR2B antagonist and an opioid analgesic” (Merck Sharpe & Dohme Limited, priority 1998, dated 2003).
“And” between values parts separate entries of the source, which are not always exact repeats. Equal values may be shown once.

Tests used:
[1] = tested on: mechanical hyperalgesia induced by carrageenan; assay: Carrageenan-induced mechanical hyperalgesia assay (modified Ugo Basile Algesiometer); format: in vivo, rat; conditions: for ID50 Antinociception Rat Carrageenan: inhibition of mechanical hyperalgesia 3 h after carrageenan 4.5 mg i.pl., compound given 2 h after carrageenan, route given per compound
Procedure: (§1) Anti-algesic activity was assessed using an assay of neuropathic pain in rats (sciatic nerve ligation) and in a carrageenan-induced hyperalgesia assay. Motor impairment was measured using an accelerating rotarod.
(§2) For sciatic nerve ligation, male Sprague Dawley rats (180-220 g) were anaesthetised with isofluorane, the left sciatic nerve exposed and 4 chromic catgut (4.0) ligatures were tied loosely around the nerve (spaced 1-2 mm apart) immediately proximal to the point of trifurcation. In sham-operated animals, the same dissection was performed but without ligation. Responses to mechanical pressure were assessed 7 days after ligation using a modified Randall-Selitto algesiometer in which constant force of 40 mmHg was applied to the hind paw and the latency to struggle was recorded as the reaction time. Mechanical allodynia was defined as the difference in reaction time for sham and ligature rats. Reaction times for drug treated rats were expressed as a percentage of this response. Compounds were administered 1 h before the test. In the carrageenan-induced hyperalgesia assay, male Sprague Dawley rats (100-120 g) received an intraplantar injection of carrageenan (4.5 mg) and mechanical thresholds were determined 3 h later using a modified Ugo Basile Algesiometer. Control rats received saline (0.15 ml i.pl.). Hyperalgesia was defined as the difference in vocalisation threshold for saline- and carrageenan-injected rats. Paw pressure scores for drug-treated rats were expressed as a percentage of this response. Compounds were administered 2 h after carrageenan. To determine the effects of the compounds on motor co-ordination, male Sprague Dawley rats (160-180 g) were first trained to remain for 120 s on the rotarod apparatus revolving at 12 r.p.m. on the morning before the test. […] Lamotrigine, gabapentin and (±)-CP-101,606 were suspended in 0.5% methocel and administered orally (1 ml/kg). Ifenprodil, L-701.324, L-687,414 and (±)-Ro25-6981 were dissolved or suspended in 0.5% methocel and administered intraperitoneally (1 ml/kg). MK-801 was dissolved in distilled water and given i.p. (1 ml/kg). Doses of compounds refer to the free base.
(§3) Male Sprague Dawley rats (100-120 g) received an intraplantar injection of carrageenan (4.5 mg) and mechanical thresholds were determined 3 h later using a modified Ugo Basile Algesiometer. Control rats received saline (0.15 ml i.pl.). Hyperalgesia was defined as the difference in vocalisation threshold for saline- and carrageenan-injected rats. Paw pressure scores for drug-treated rats were expressed as a percentage of this response. Compounds were administered 2 h after carrageenan. To determine the effects of morphine and (±)-Ro25-6981 on motor co-ordination, male Sprague Dawley rats (160-180 g) were first trained to remain for 120 s on the rotarod apparatus revolving at 12 r.p.m. on the morning before the test.
(§4) (±)-Ro25-6981 was suspended in 0.5% methocel and administered intraperitoneally (1 ml/kg). Morphine HCl was dissolved in saline and given subcutaneously (1 ml/kg). Doses of compounds refer to the free base.

[2] = tested on: rotarod performance (motor co-ordination); assay: Motor co-ordination and behaviour, accelerating rotarod; conditions: for ID50 Motor Impairment Rat Rotarod: accelerating rotarod 1 h after drug, route given per compound
Procedure: as §1, §2, §3, §4

[3] = tested on: mechanical allodynia induced by sciatic nerve ligation; assay: Sciatic nerve ligation assay of neuropathic pain (mechanical allodynia, modified Randall-Selitto algesiometer); format: in vivo, rat; conditions: for effect on mechanical allodynia induced by sciatic nerve ligation: in words, Example 5; for ID50 Antinociception Rat Ligation: reversal of mechanical allodynia 7 days after ligation, compound given 1 h before test, route given per compound
[4] = tested on: rat hyperalgesic and nociceptive tests; conditions: at doses showing no behavioural abnormality; cited from earlier work

| Compound | ID50 Antinociception Rat Carrageenan [1] [mg/kg] | ID50 Motor Impairment Rat Rotarod [2] | effect on mechanical allodynia induced by sciatic nerve ligation [3] | ID50 Antinociception Rat Ligation [3] [mg/kg] | further results |
| --- | --- | --- | --- | --- | --- |
| C[C@@H](CN1CCC(Cc2ccccc2)CC1)[C@@H](O)c1ccc(O)cc1 (racemic) [(±)-Ro25-6981] | 5.7 | ≧100 mg/kg | dose-dependently reversed mechanical allodynia | 3.8 | antinociception in carrageenan-induced hyperalgesia ([1]; 1 mg/kg i.p., alone): did not cause significant antinociception; effect on mechanical hyperalgesia induced by carrageenan ([1]; 10 and 30 mg/kg i.p., alone (FIG. 1)): dose-dependent reversal of mechanical hyperalgesia; effect on rotarod performance ([2]; 1 mg/kg i.p. alone (FIG. 3)): no effect; inhibition of rotarod performance ([2]; 100 mg/kg i.p.): 47% |
| C[C@@H]([C@@H](O)c1ccc(O)cc1)N1CCC(O)(c2ccccc2)CC1 [CP-101,606] | – | – | – | – | analgesic activity [4]: Potent analgesic activity |
| NCC1(CC(=O)O)CCCCC1 [Gabapentin, gabapentin] | 50 | 133 mg/kg | reversed mechanical allodynia | 87 | behavioural effects observed ([2]; doses of 30-300 mg/kg): motor impairments (ataxia) |
| CC(C(O)c1ccc(O)cc1)N1CCC(Cc2ccccc2)CC1 (centres unmarked) [Ifenprodil, ifenprodil] | 17 | ≧50 mg/kg | reversed mechanical allodynia | 9.5 | adverse effects observed (ptosis, piloerection, hypoactivity, hyperventilation) ([2]; 50 mg/kg): severe adverse effects; impairment in rotarod performance ([2]; 50 mg/kg): approximately 50% |
| C[C@@H]1CN(O)C(=O)[C@@H]1N [L-687,414] | 50 | 53.3 mg/kg and 53 mg/kg | dose-dependently reversed mechanical allodynia | 9.8 | behavioural effects observed ([2]; 100 and 300 mg/kg i.p.): body rolling and ataxia |
| O=c1[nH]c2cc(Cl)ccc2c(O)c1-c1cccc(Oc2ccccc2)c1 [L-701,324] | 2.5 | 1.9 mg/kg | dose-dependently reversed mechanical allodynia | 2.6 | behavioural effects observed ([2]; 10 and 30 mg/kg i.p.): ataxia was evident |
| Nc1nnc(-c2cccc(Cl)c2Cl)c(N)n1 [Lamotrigine, lamotrigine] | 207 | >500 mg/kg | reversed mechanical allodynia | 11 | inhibition in the time spent on the rotarod ([2]; 500 mg/kg p.o.): 40%; other effects observed besides rotarod inhibition ([2]; 500 mg/kg p.o.): no other effects were observed |
| C[C@]12N[C@H](Cc3ccccc31)c1ccccc12 [MK-801] | 0.21 | 0.22 mg/kg | dose-dependently reversed mechanical allodynia | 0.19 | behavioural effects observed ([2]; 0.3 and 1 mg/kg doses): Body rolling. and head weaving |
| CN1CC[C@]23c4c5ccc(O)c4O[C@H]2[C@@H](O)C=C[C@H]3[C@H]1C5 [morphine] | – | – | – | – | effect on mechanical hyperalgesia induced by carrageenan ([1]; 1 mg/kg s.c., alone (FIG. 2)): completely reversed mechanical hyperalgesia; effect on mechanical hyperalgesia induced by carrageenan ([1]; 0.1 and 0.3 mg/kg s.c., alone (FIG. 2)): without effect; percent inhibition of hyperalgesia ([1]; morphine 0.1 mg/kg s.c. alone): 11%; percent inhibition of hyperalgesia ([1]; morphine 0.3 mg/kg s.c. alone): 31%; effect on rotarod performance ([2]; 3 mg/kg s.c. alone (FIG. 3)): significant impairment; effect on rotarod performance ([2]; 0.3 and 1 mg/kg s.c. alone (FIG. 3)): no effect |
| (±)-CP-101,606 | 37 | >300 mg/kg | dose-dependently reversed mechanical allodynia | 6.1 | rotarod latency compared to vehicle-treated rats ([2]; 300 mg/kg dose): significant increase in latency; effect on motor performance on the rotarod ([2]; up to 300 mg/kg p.o.): did not inhibit motor performance |
